Values quoted from earlier work, collected in patent publication US20060057204A1, “Pharmaceutical compositions containing venlafaxine” (priority 2002, published 2006).
Counter-ions that a name gives are not always drawn.

Conditions: plural daily dosing regimen

COc1ccc(C(CN(C)C)C2(O)CCCCC2)cc1 (centres unmarked) [venlafaxine hydrochloride, 1-[(2-dimethylamino)-1-(4-methoxyphenyl)ethyl] cyclohexanol]
nausea, patients under treatment: about forty five percent
vomiting, patients: about seventeen percent
